Patent US20140228349A1, “5,7-SUBSTITUTED-IMIDAZO[1,2-C]PYRIMIDINES” (Array BioPharma Inc., priority 2011, published 2014)

Columns and labels:
Type in all cases: biochemical
JAK3 = target: T1, JAK3 (Homo sapiens, UniProt P52333); test: JAK3 Inhibition Assay (Omnia kinase fluorescence peptide substrate); conditions: averaged IC50 ranges; 10 μM (Km app) or 1 mM ATP, 2.5 nM JAK3
T1 construct: purchased Invitrogen Corporation, Carlsbad, Calif; IVGN PV4080
T1 sequence (P52333 1-1124): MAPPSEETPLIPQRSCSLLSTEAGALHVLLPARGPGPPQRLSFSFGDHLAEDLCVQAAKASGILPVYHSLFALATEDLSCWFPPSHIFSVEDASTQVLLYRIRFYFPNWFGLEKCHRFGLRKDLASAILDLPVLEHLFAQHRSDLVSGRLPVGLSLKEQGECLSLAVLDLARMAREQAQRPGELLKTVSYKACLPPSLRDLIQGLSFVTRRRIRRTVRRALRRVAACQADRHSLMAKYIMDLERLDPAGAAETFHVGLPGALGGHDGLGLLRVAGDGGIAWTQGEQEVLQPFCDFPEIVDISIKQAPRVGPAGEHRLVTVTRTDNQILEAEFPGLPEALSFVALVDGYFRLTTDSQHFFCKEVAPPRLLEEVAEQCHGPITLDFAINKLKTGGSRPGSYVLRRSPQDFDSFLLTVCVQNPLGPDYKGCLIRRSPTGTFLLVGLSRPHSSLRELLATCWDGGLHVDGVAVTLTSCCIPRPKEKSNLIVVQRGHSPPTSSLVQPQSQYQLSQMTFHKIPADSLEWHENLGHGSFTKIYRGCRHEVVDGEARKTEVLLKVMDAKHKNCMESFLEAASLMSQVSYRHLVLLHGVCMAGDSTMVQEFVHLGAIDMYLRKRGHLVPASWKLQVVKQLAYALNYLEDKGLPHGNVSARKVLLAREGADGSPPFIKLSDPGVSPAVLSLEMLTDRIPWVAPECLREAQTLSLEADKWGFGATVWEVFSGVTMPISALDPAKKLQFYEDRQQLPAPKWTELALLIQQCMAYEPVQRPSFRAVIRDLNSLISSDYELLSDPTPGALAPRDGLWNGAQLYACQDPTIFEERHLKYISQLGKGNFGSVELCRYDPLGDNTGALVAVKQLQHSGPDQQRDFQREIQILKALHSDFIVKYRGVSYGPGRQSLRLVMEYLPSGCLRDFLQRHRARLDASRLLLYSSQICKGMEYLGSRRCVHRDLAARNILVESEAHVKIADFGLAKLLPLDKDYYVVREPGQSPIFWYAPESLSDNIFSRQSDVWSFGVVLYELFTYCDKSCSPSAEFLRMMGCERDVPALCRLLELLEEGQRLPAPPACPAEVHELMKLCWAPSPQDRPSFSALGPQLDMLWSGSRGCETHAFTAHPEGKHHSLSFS
Excerpt: (§1) The assays described in Examples A, B, C and D for the determination of Tyk2, JAK1, JAK2 and JAK3 kinase activity, respectively, utilized the Omnia® Kinase fluorescence peptide substrate-based technology (Invitrogen). The specific components of the assay mixture are described in Examples A, B, C and D. In these assays, Mg^2+ is chelated upon phosphorylation of the Omnia peptide by the kinase to form a bridge between the chelation-enhanced fluorophore Sox and the phosphate, resulting in an increase in fluorescence emission at 485 nm when excited at […]. The reactions were therefore read at excitation 360 nm and emission was measured at 485 nm every 50 seconds for 45 minutes using a PerkinElmer EnVision Multilabel Plate Reader.
(§2) The final buffer conditions for Tyk2, JAK1, JAK2, and JAK3 assays were as follows: 25 mM HEPES, pH 7.4, 10 mM MgCl2, 0.01% Triton X-100 and 1 mM DTT.
(§3) Compounds were prepared at 50× the final concentration in DMSO by conducting 3-fold serial dilutions from a 500-μM intermediate dilution to give a 10-point dosing curve having a high dose of 10 μM. Two-μL aliquots of these were transferred to a fresh plate for a ten-fold intermediate dilution with assay buffer. Five-μL aliquots of the diluted compounds were then transferred to 20-μL of assay mixtures described in Examples A, B, C and D for a final concentration of DMSO of 2%. A standard or reference compound was typically included on each assay plate to validate that plate. For each plate, percent of control (POC) values were calculated for each well according to the following equation: […]
(§4) IC50's were estimated from the POC's using a standard 4-parameter logistic model:
(§5) The IC50 is defined as the concentration of inhibitor at which the POC equals 50 for the fitted curve.
(§6) Compounds of Formula I were screened for their ability to inhibit JAK3 using the general enzyme inhibition assay method, in which the assay mixture contained 10 μM (Km app) or 1 mM ATP, 10 μM Omnia® Y7 peptide (Catalog #IVGN KNZ3071C, Invitrogen Corporation, Carlsbad, Calif.) and 2.5 nM JAK3 in a total volume of 20 μL. JAK3 was purchased from Invitrogen Corporation, Carlsbad, Calif. (catalog #IVGN PV4080).

JAK1 = target: T2, JAK1 (Homo sapiens, UniProt P23458); test: JAK1 Inhibition Assay (Omnia kinase fluorescence peptide substrate); conditions: averaged IC50 ranges; 40 μM (Km app) or 1 mM ATP, 15 nM JAK1
T2 construct: purchased Invitrogen Corporation, Carlsbad, Calif; IVGN PV4775
T2 sequence (P23458 whole entry): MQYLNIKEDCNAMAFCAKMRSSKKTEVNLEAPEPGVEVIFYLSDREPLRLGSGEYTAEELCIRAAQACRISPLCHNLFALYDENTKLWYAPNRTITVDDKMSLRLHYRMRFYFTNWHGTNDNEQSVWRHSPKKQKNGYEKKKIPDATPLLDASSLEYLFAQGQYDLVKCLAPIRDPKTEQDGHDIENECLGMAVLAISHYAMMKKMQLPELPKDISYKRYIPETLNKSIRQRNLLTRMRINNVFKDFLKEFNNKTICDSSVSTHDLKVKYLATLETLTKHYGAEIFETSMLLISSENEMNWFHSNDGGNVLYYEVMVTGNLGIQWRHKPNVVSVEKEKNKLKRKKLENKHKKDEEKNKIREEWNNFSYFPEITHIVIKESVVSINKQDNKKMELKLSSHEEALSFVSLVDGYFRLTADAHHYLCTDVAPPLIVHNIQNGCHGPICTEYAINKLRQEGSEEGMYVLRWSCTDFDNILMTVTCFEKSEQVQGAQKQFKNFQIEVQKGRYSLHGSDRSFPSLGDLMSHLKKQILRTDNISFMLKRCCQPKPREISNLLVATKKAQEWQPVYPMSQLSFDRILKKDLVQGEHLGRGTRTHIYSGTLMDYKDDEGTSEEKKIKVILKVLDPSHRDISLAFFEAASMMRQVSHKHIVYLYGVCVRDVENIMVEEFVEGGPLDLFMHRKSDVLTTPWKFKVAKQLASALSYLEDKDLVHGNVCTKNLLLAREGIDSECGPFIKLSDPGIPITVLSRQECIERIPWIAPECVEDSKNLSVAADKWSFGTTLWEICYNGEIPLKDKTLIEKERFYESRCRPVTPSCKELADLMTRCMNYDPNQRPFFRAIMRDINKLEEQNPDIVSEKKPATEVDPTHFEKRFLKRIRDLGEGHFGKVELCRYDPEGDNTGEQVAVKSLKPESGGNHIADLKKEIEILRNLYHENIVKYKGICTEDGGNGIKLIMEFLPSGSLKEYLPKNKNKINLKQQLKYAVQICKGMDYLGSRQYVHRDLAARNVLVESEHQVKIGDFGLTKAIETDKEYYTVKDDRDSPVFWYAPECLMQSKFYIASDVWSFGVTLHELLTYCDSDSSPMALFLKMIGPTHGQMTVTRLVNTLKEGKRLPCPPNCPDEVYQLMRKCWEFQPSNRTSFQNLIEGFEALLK
Excerpt: as §1, §2, §3, §4, §5
Compounds of Formula I were screened for their ability to inhibit JAK1 using the general enzyme inhibition assay method, in which the assay mixture contained 40 μM (Km app) or 1 mM ATP, 8 μM Omnia® Y12 peptide (Catalog #IVGN KPZ3121C; Invitrogen Corporation, Carlsbad, Calif.) and 15 nM JAK1 in a total volume of 20 μL. JAK1 was purchased from Invitrogen Corporation, Carlsbad, Calif. (catalog #IVGN PV4775).

Human Tyk2 kinase domain = target: T3, Human Tyk2 kinase domain (Homo sapiens, UniProt P29597); test: Tyk2 Inhibition Assay (Omnia kinase fluorescence peptide substrate); conditions: averaged IC50 ranges; 10 μM (Km app) or 1 mM ATP, 2 nM Tyk2
T3 construct: comprising amino acids 886 to 1187; His10 (10 histidine residues) (C, cleaved yes); made in house
T3 sequence (P29597 886-1187): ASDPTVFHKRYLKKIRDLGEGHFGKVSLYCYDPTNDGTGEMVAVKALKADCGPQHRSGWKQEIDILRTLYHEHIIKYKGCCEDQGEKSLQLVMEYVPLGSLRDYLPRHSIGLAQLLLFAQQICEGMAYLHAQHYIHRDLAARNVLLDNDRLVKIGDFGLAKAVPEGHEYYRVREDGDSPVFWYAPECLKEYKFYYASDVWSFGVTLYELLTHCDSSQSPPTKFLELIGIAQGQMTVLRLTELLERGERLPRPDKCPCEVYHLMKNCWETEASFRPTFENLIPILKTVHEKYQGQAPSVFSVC
Excerpt: as §1, §2, §3, §4, §5
Compounds of Formula I were screened for their ability to inhibit Tyk2 using the general enzyme inhibition assay method, in which the assay mixture contained 10 μM (Km app) or 1 mM ATP, 8 μM Omnia® Y12 peptide (Catalog #IVGN KPZ3121C; Invitrogen Corporation, Carlsbad, Calif.) and 2 nM Tyk2 in a total volume of 20 μL. Human Tyk2 kinase domain, comprising amino acids 886 to 1187 with 10 additional histidine residues (histidine tag) on the carboxy terminus, was expressed and purified from bacculovirus in-house at Array BioPharma Inc. (Boulder, Colo.). The histidine tag was cleaved after purification using standard conditions.

JAK2 = target: T4, JAK2 (Homo sapiens, UniProt O60674); test: JAK2 Inhibition Assay (Omnia kinase fluorescence peptide substrate); conditions: averaged IC50 ranges; 25 μM (Km app) or 1 mM ATP, 5 nM JAK2
T4 construct: purchased Invitrogen Corporation, Carlsbad, Calif; IVGN PV4288
T4 sequence (O60674 whole entry): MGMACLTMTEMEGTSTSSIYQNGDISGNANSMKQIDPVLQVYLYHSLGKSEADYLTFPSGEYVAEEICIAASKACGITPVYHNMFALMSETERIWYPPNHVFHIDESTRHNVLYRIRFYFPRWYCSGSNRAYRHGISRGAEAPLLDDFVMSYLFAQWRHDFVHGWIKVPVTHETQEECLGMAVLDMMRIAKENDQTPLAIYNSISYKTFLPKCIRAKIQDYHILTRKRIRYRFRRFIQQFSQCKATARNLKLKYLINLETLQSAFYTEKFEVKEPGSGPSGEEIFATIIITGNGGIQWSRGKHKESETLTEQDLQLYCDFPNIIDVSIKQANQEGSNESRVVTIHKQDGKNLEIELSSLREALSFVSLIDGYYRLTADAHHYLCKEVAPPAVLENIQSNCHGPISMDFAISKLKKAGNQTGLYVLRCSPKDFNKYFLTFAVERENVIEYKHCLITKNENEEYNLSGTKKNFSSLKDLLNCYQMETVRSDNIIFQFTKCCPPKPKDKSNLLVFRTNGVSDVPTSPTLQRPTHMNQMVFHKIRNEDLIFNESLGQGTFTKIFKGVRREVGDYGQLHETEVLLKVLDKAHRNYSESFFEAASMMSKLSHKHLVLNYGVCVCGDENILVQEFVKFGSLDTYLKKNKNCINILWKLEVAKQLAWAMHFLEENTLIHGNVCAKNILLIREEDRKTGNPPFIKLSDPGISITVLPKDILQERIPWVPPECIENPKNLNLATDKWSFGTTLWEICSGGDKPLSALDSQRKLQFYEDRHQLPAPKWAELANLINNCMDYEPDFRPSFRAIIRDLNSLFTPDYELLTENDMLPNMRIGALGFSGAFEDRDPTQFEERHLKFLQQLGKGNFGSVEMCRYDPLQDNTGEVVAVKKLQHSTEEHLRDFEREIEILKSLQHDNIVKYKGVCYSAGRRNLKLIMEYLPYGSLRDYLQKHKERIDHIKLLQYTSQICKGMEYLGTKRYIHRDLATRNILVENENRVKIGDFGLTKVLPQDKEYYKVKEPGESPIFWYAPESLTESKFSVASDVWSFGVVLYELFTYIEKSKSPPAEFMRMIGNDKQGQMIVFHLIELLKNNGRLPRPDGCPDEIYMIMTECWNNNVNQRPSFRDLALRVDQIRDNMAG
Excerpt: as §1, §2, §3, §4, §5
as §6, with “inhibit JAK2” for “inhibit JAK3”, “contained 25” for “contained 10”, “and 5” for “and 2.5”, “nM JAK2” for “nM JAK3”, “μL. JAK2” for “μL. JAK3”, “#IVGN PV4288).” for “#IVGN PV4080).”

SMILES	IC50 (JAK3)	IC50 (JAK1)	IC50 (Human Tyk2 kinase domain)	IC50 (JAK2)
CC[C@@H](CCF)n1cc(-c2nc(-c3cnn(C)c3)cc3nccn23)cn1 [Example 43, (S)-5-(1-(1-fluoropentan-3-yl)-1H-pyrazol-4-yl)-7-(1-methyl-1H-pyrazol-4-yl)imidazo[1,2-c]pyrimidine]	100 to 1000 nM	100 to 1000 nM	10 to 100 nM	10 to 100 nM
C=CCC1(n2cc(-c3nc(-c4cnn(C)c4)cc4nccn34)cn2)CN(S(=O)(=O)C(F)(F)F)C1 [Example 91, 5-(1-(3-allyl-1-((trifluoromethyl)sulfonyl)azetidin-3-yl)-1H-pyrazol-4-yl)-7-(1-methyl-1H-pyrazol-4-yl)imidazo[1,2-c]pyrimidine]	100 to 1000 nM	10 to 100 nM	< 10 nM	10 to 100 nM
Cn1cc(-c2cc3nccn3c(-c3cnn(C(CCF)C4CCCC4)c3)n2)cn1 (stereo not drawn) [Example 66, 5-(1-(1-cyclopentyl-3-fluoropropyl)-1H-pyrazol-4-yl)-7-(1-methyl-1H-pyrazol-4-yl)imidazo[1,2-c]pyrimidine]	100 to 1000 nM	100 to 1000 nM	< 10 nM	10 to 100 nM
COCCn1cc(-c2cc3nccn3c(-c3cnn(C4(CCF)CN(S(=O)(=O)C(F)(F)F)C4)c3)n2)cn1 [Example 89, 5-(1-(3-(2-fluoroethyl)-1-((trifluoromethyl)sulfonyl)azetidin-3-yl)-1H-pyrazol-4-yl)-7-(1-(2-methoxyethyl)-1H-pyrazol-4-yl)imidazo[1,2-c]pyrimidine]	100 to 1000 nM	10 to 100 nM	< 10 nM	10 to 100 nM
Cn1cc(-c2cc3nccn3c(-c3cnn(C4(CCF)CN(S(C)(=O)=O)C4)c3)n2)cn1 [Example 64, 5-(1-(3-(2-fluoroethyl)-1-(methylsulfonyl)azetidin-3-yl)-1H-pyrazol-4-yl)-7-(1-methyl-1H-pyrazol-4-yl)imidazo[1,2-c]pyrimidine]	100 to 1000 nM	100 to 1000 nM	10 to 100 nM	10 to 100 nM
Cn1cc(-c2cc3nccn3c(-c3ccn([C@H](CCF)[C@H]4CC4(F)F)c3)n2)cn1 [Example 23, 5-(1-((R)-1-((R)-2,2-difluorocyclopropyl)-3-fluoropropyl)-1H-pyrrol-3-yl)-7-(1-methyl-1H-pyrazol-4-yl)imidazo[1,2-c]pyrimidine]	10 to 100 nM	10 to 100 nM	< 10 nM	10 to 100 nM
CCC(CCCO)n1cc(-c2nc(-c3cnn(C)c3)cc3nccn23)cn1 (stereo not drawn) [Example 65, 4-(4-(7-(1-methyl-1H-pyrazol-4-yl)imidazo[1,2-c]pyrimidin-5-yl)-1H-pyrazol-1-yl)hexan-1-ol]	100 to 1000 nM	100 to 1000 nM	10 to 100 nM	100 to 1000 nM
CC#CCC(C1CC1)n1cc(-c2nc(-c3cnn(C)c3)cc3nccn23)cn1 (stereo not drawn) [Example 45, 5-(1-(1-cyclopropylpent-3-yn-1-yl)-1H-pyrazol-4-yl)-7-(1-methyl-1H-pyrazol-4-yl)imidazo[1,2-c]pyrimidine]	> 1000 nM	> 1000 nM	100 to 1000 nM	100 to 1000 nM
CCOC(=O)CC1(n2cc(-c3nc(-c4cnn(C)c4)cc4nccn34)cn2)CN(S(=O)(=O)C(F)(F)F)C1 [Example 1, ethyl 2-(3-(4-(7-(1-methyl-1H-pyrazol-4-yl)imidazo[1,2-c]pyrimidin-5-yl)-1H-pyrazol-1-yl)-1-(trifluoromethylsulfonyl)azetidin-3-yl)acetate]	> 1000 nM	> 1000 nM	100 to 1000 nM	> 1000 nM
CC[C@H](CCF)n1cc(-c2nc(-c3cnn(C)c3)cc3nccn23)cn1 [Example 42, (R)-5-(1-(1-fluoropentan-3-yl)-1H-pyrazol-4-yl)-7-(1-methyl-1H-pyrazol-4-yl)imidazo[1,2-c]pyrimidine]	100 to 1000 nM	100 to 1000 nM	< 10 nM	10 to 100 nM
CCCC1(n2cc(-c3nc(-c4cnn(C)c4)cc4nccn34)cn2)CN(S(=O)(=O)C(F)(F)F)C1 [Example 88, 7-(1-methyl-1H-pyrazol-4-yl)-5-(1-(3-propyl-1-((trifluoromethyl)sulfonyl)azetidin-3-yl)-1H-pyrazol-4-yl)imidazo[1,2-c]pyrimidine]	100 to 1000 nM	100 to 1000 nM	10 to 100 nM	10 to 100 nM
C[C@H](O)C[C@@H](C1CC1)n1cc(-c2nc(-c3cnn(C)c3)cc3nccn23)cn1 [Example 41, (2S,4S)-4-cyclopropyl-4-(4-(7-(1-methyl-1H-pyrazol-4-yl)imidazo[1,2-c]pyrimidin-5-yl)-1H-pyrazol-1-yl)butan-2-ol]	> 1000 nM	> 1000 nM	100 to 1000 nM	100 to 1000 nM
